According to US20260042731A1, “(2,4-DICHLOROPHENOXY)ACETIC ACID ANALOGS” (CORTEVA AGRISCIENCE LLC, priority 2022, published 2026):
Values joined by “and” are separate entries in the source; they are usually repeats but may differ in a detail not shown here. Equal entries are not always repeated. Where two headings read alike, the source gives them in different places.

Key:
[1] = test system: Abutilon theophrasti (ABUTH), velvetleaf; assay: Postemergence herbicide evaluation, growth of Abutilon theophrasti (ABUTH); assay type: in vivo; conditions: Abutilon theophrasti, post-emergence, percent reduction in plant size vs untreated control, read-out: AVE. ABUTH; for pest or weed control at 280 g/ha: 280 g ae/ha; for pest or weed control at 560 g/ha: 560 g ae/ha
[2] = Volatility of compounds measured by thermogravimetric analysis (TGA); assay type: physicochemical
[3] = test system: Amaranthus rudis (AMATA), tall water hemp; assay: Postemergence herbicide evaluation, growth of Amaranthus rudis (AMATA); assay type: in vivo; conditions: Amaranthus tuberculatus, post-emergence, percent reduction in plant size vs untreated control, read-out: Ave. AMATA; for pest or weed control at 280 g/ha: 280 g ae/ha; for pest or weed control at 560 g/ha: 560 g ae/ha
[4] = test system: glyphosate resistant Conyza canadensis (L.) (ERICA), horseweed; assay: Postemergence herbicide evaluation, growth of Conyza canadensis (ERICA); assay type: in vivo; conditions: Erigeron canadensis, post-emergence, percent reduction in plant size vs untreated control, read-out: Ave. ERICA; for pest or weed control at 280 g/ha: 280 g ae/ha; for pest or weed control at 560 g/ha: 560 g ae/ha
[5] = test system: weeds ABUTH, AMATA, AMBEL, CHEAL, ERICA; assay: Postemergence herbicide evaluation, overall average % weed control across ABUTH, AMATA, AMBEL, CHEAL and ERICA; assay type: in vivo; conditions: post-emergence, average over five weeds, read-out: Overall Ave % Weed Control; for pest or weed control at 280 g/ha: 280 g ae/ha; for pest or weed control at 560 g/ha: 560 g ae/ha
[6] = test system: Ambrosia artemisiifolia (AMBEL), common ragweed; assay: Postemergence herbicide evaluation, growth of Ambrosia artemisiifolia (AMBEL); assay type: in vivo; conditions: Ambrosia artemisiifolia, post-emergence, percent reduction in plant size vs untreated control, read-out: AVE. AMBEL; for pest or weed control at 280 g/ha: 280 g ae/ha; for pest or weed control at 560 g/ha: 560 g ae/ha
[7] = test system: Chenopodium album (CHEAL), common lambsquarters; assay: Postemergence herbicide evaluation, growth of Chenopodium album (CHEAL); assay type: in vivo; conditions: Chenopodium album, post-emergence, percent reduction in plant size vs untreated control, read-out: Ave. CHEAL; for pest or weed control at 280 g/ha: 280 g ae/ha; for pest or weed control at 560 g/ha: 560 g ae/ha

Compound | pest or weed control at 280 g/ha ([1]; 168 h, 7 DAA) [%] | pest or weed control at 560 g/ha ([1]; 168 h, 7 DAA) [%] | pest or weed control at 560 g/ha ([1]; 336 h, 14 DAA) [%] | pest or weed control at 560 g/ha ([1]; 504 h, 21 DAA) [%] | TGA Data (rate of weight loss, volatility) [2] [µg/min] | pest or weed control at 560 g/ha ([3]; 168 h, 7 DAA) [%] | pest or weed control at 560 g/ha ([3]; 336 h, 14 DAA) [%] | pest or weed control at 560 g/ha ([3]; 504 h, 21 DAA) [%] | pest or weed control at 560 g/ha ([4]; 168 h, 7 DAA) [%] | pest or weed control at 560 g/ha ([4]; 336 h, 14 DAA) [%] | pest or weed control at 560 g/ha ([4]; 504 h, 21 DAA) [%] | pest or weed control at 560 g/ha ([5]; 168 h, 7 DAA) [%] | pest or weed control at 560 g/ha ([5]; 336 h, 14 DAA) [%] | pest or weed control at 560 g/ha ([5]; 504 h, 21 DAA) [%] | pest or weed control at 560 g/ha ([6]; 168 h, 7 DAA) [%] | pest or weed control at 560 g/ha ([6]; 336 h, 14 DAA) [%] | pest or weed control at 560 g/ha ([6]; 504 h, 21 DAA) [%] | pest or weed control at 560 g/ha ([7]; 168 h, 7 DAA) [%] | pest or weed control at 560 g/ha ([7]; 336 h, 14 DAA) [%] | pest or weed control at 560 g/ha ([7]; 504 h, 21 DAA) [%] | further results
C/C(=N\OC(=O)COc1ccc(Cl)cc1Cl)C(=O)c1ccccc1 [Compound A22] | 62.5 | 70 | 98.5 | 99.5 | 0.42 | 87.5 | 92.5 | 87.5 | 77.5 | 100 | 99.5 | 79.5 | 96.5 | 96.8 | 82.5 | 92.5 | 100 | 80 | 99 | 97.5 | pest or weed control at 280 g/ha ([1]; 336 h, 14 DAA): 82.5%; pest or weed control at 280 g/ha ([1]; 504 h, 21 DAA): 97%; pest or weed control at 280 g/ha ([3]; 168 h, 7 DAA): 70%; pest or weed control at 280 g/ha ([3]; 336 h, 14 DAA): 87.5%; pest or weed control at 280 g/ha ([3]; 504 h, 21 DAA): 65%; pest or weed control at 280 g/ha ([4]; 168 h, 7 DAA): 87.5%; pest or weed control at 280 g/ha ([4]; 336 h, 14 DAA): 100%; pest or weed control at 280 g/ha ([4]; 504 h, 21 DAA): 99%; pest or weed control at 280 g/ha ([5]; 168 h, 7 DAA): 74.5%; pest or weed control at 280 g/ha ([5]; 336 h, 14 DAA): 87%; pest or weed control at 280 g/ha ([5]; 504 h, 21 DAA): 89.7%; pest or weed control at 280 g/ha ([6]; 168 h, 7 DAA): 77.5%; pest or weed control at 280 g/ha ([6]; 336 h, 14 DAA): 67.5%; pest or weed control at 280 g/ha ([6]; 504 h, 21 DAA): 100%; pest or weed control at 280 g/ha ([7]; 168 h, 7 DAA): 75%; pest or weed control at 280 g/ha ([7]; 336 h, 14 DAA): 97.5%; pest or weed control at 280 g/ha ([7]; 504 h, 21 DAA): 87.5%
O=C(COc1ccc(Cl)cc1Cl)ONC(=O)C1CCCC1 [Compound A20] | 60 | 87.5 | 100 | 100 | 1.83 | 92.5 | 90 | 82.5 | 80 | 94.5 | 100 | 84.5 | 92.4 | 95.7 | 85 | 85 | 100 | 77.5 | 92.5 | 96 | pest or weed control at 280 g/ha ([1]; 336 h, 14 DAA): 79%; pest or weed control at 280 g/ha ([1]; 504 h, 21 DAA): 92.5%; TGA Data (rate of weight loss, volatility) ([2]; value marked *: decomposition of the material was observed): 2.946* μg/min and 1.83* μg/min; pest or weed control at 280 g/ha ([3]; 168 h, 7 DAA): 91.5%; pest or weed control at 280 g/ha ([3]; 336 h, 14 DAA): 90%; pest or weed control at 280 g/ha ([3]; 504 h, 21 DAA): 100%; pest or weed control at 280 g/ha ([4]; 168 h, 7 DAA): 75%; pest or weed control at 280 g/ha ([4]; 336 h, 14 DAA): 98.5%; pest or weed control at 280 g/ha ([4]; 504 h, 21 DAA): 100%; pest or weed control at 280 g/ha ([5]; 168 h, 7 DAA): 75.3%; pest or weed control at 280 g/ha ([5]; 336 h, 14 DAA): 93.1%; pest or weed control at 280 g/ha ([5]; 504 h, 21 DAA): 97.5%; pest or weed control at 280 g/ha ([6]; 168 h, 7 DAA): 72.5%; pest or weed control at 280 g/ha ([6]; 336 h, 14 DAA): 100%; pest or weed control at 280 g/ha ([6]; 504 h, 21 DAA): 100%; pest or weed control at 280 g/ha ([7]; 168 h, 7 DAA): 77.5%; pest or weed control at 280 g/ha ([7]; 336 h, 14 DAA): 98%; pest or weed control at 280 g/ha ([7]; 504 h, 21 DAA): 95%
O=C(COc1ccc(Cl)cc1Cl)NOCc1c(F)cccc1Cl [Compound D17] | – | 47.5 | 62.5 | 80 | 0.0287 | 86.5 | 96 | 92.5 | 80 | 100 | 100 | 73.8 | 89.8 | 94.5 | 77.5 | 92.5 | 100 | 77.5 | 98 | 100 | –
O=C(COc1ccc(Cl)cc1Cl)Nc1ccccn1 [Compound D28] | 77.5 | 72.5 | 97.5 | 100 | 0.06 | 98 | 87.5 | 100 | 82.5 | 97.5 | 98.5 | 83.1 | 95.8 | 99 | 85 | 100 | 100 | 77.5 | 96.5 | 96.5 | pest or weed control at 280 g/ha ([1]; 336 h, 14 DAA): 96.5%; pest or weed control at 280 g/ha ([1]; 504 h, 21 DAA): 100%; pest or weed control at 280 g/ha ([3]; 168 h, 7 DAA): 80%; pest or weed control at 280 g/ha ([3]; 336 h, 14 DAA): 96%; pest or weed control at 280 g/ha ([3]; 504 h, 21 DAA): 81.5%; pest or weed control at 280 g/ha ([4]; 168 h, 7 DAA): 82.5%; pest or weed control at 280 g/ha ([4]; 336 h, 14 DAA): 99.5%; pest or weed control at 280 g/ha ([4]; 504 h, 21 DAA): 99.5%; pest or weed control at 280 g/ha ([5]; 168 h, 7 DAA): 79%; pest or weed control at 280 g/ha ([5]; 336 h, 14 DAA): 95.8%; pest or weed control at 280 g/ha ([5]; 504 h, 21 DAA): 96.2%; pest or weed control at 280 g/ha ([6]; 168 h, 7 DAA): 75%; pest or weed control at 280 g/ha ([6]; 336 h, 14 DAA): 90%; pest or weed control at 280 g/ha ([6]; 504 h, 21 DAA): 100%; pest or weed control at 280 g/ha ([7]; 168 h, 7 DAA): 80%; pest or weed control at 280 g/ha ([7]; 336 h, 14 DAA): 97%; pest or weed control at 280 g/ha ([7]; 504 h, 21 DAA): 100%
